{"source": "ChEMBL document CHEMBL1121961", "about": "“Synthesis and biological evaluation of 6-ethynyluracil, a thiol-specific alkylating pyrimidine” (J Med Chem, 1982)", "assay_type_in_all_cases": "functional, cell-based", "details_in_all_cases": "Mus musculus", "key": {"[1]": {"tested_on": "B16", "assay": "In vitro inhibitory activity against B16 melanoma cell lines"}, "[2]": {"tested_on": "L1210", "assay": "In vitro inhibitory activity against leukemia L1210 cell lines"}, "[3]": {"tested_on": "Lewis lung carcinoma cell line", "assay": "In vitro inhibitory activity against lewis lung cell lines"}}}
{"smiles": "Oc1cc(/C=C/C(Br)Br)nc(O)n1", "values": [{"measurement": "Concentration", "setting": "[1]", "value": 1, "unit": "µM"}, {"measurement": "Concentration", "setting": "[2]", "value": 1, "unit": "µM"}, {"measurement": "Concentration", "setting": "[3]", "value": 8, "unit": "µM"}]}
{"smiles": "C#Cc1cc(O)nc(O)n1", "values": [{"measurement": "Concentration", "setting": "[1]", "value": 10, "unit": "µM"}, {"measurement": "Concentration", "setting": "[2]", "value": 7, "unit": "µM"}, {"measurement": "Concentration", "setting": "[3]", "value": 20, "unit": "µM"}]}
